Measurements reported in US9732094B2, “Arylquinazolines” (Merck Patent GmbH, priority 2013, dated 2017).
Like-named read-outs stand apart in the source and are kept apart here.

Assays:
[1] = biological target: Kv11.1 (hERG) (Homo sapiens (Human), UniProt Q12809); assay: Kv11.1 (hERG) ion channel activity (patch clamp assay), HEK293 cells transfected with hERG gene
[2] = biological target: DNA-PK phosphorylation at serine 2056 (Homo sapiens (Human), UniProt P78527); assay: DNA-PK phosphorylation at serine 2056 (cellular), bleomycin-treated HCT116 cells, ELISA; assay type: cell-based; settings: read-out: IC50 pDNA-PK
Procedure, shortened: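 After overnight seeding, HCT116 cells received compound with 10 μM bleomycin for 6 h; phospho-DNA-PK ELISA signals were scaled to total DNA-PKcs, DMSO serving as blank.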

[3] = biological target: DNA-PK (Homo sapiens (Human), UniProt P78527); assay: DNA-PK assay (biochemical), flashplate 33P-ATP kinase assay
Procedure, shortened: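 Reactions ran in streptavidin-coated flashplates and were halted by 200 mM EDTA, with a further 30 min at room temperature before saline washing.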

[4] = read-out: Ki [Kv1.11 hERG], patch clamp, HEK293 transfected with hERG gene
[5] = cellular, HCT116 cells, 10 μM bleomycin, six hours
[6] = read-out: Ki [Kv1.11 hERG], Table 7
[7] = Ki [Kv1.11 hERG], hERG patch clamp assay (cells without asterisk)
[8] = cellular DNA-PK phosphorylation at serine 2056, HCT116
[9] = read-out: Ki [Kv1.11 hERG], hERG patch clamp assay (cells without asterisk)

Kv11.1 (hERG), sequence (Q12809 whole entry): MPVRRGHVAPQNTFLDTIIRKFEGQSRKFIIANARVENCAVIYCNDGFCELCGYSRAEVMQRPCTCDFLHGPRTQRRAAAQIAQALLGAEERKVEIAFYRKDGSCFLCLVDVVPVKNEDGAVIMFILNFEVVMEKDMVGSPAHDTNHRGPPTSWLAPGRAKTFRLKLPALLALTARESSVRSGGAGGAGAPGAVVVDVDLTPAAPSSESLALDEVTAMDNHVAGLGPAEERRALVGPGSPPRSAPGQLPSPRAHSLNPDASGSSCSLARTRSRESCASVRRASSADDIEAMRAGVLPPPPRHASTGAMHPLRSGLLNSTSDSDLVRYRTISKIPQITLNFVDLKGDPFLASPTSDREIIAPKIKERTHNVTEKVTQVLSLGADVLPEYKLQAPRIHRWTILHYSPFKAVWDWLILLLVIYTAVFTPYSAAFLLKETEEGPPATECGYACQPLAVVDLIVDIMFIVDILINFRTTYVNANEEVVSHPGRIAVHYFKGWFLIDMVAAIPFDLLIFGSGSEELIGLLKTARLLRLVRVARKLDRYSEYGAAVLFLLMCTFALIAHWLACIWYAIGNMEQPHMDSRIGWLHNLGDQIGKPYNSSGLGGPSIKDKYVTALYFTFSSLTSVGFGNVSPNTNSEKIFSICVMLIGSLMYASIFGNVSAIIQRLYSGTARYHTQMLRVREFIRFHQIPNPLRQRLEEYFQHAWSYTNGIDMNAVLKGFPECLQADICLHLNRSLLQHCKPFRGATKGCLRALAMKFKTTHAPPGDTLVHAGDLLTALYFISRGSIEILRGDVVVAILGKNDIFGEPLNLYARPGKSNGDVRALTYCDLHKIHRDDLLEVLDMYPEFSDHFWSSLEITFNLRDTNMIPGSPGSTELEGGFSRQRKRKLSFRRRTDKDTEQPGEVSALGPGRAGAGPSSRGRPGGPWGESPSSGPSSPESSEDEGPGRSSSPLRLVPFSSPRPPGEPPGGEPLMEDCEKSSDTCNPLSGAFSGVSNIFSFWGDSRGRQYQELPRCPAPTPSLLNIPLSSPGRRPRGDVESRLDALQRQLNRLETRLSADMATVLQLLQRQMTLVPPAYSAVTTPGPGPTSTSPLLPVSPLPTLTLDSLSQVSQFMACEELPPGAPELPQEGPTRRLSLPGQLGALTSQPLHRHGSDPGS

`C#Cc1nc(-c2cc(C(O)c3nccs3)ccc2F)c2ccc(N3CCOCC3)cc2n1` (stereo not drawn) [Example 208, [3-(2-Ethynyl-7-morpholinylquinazolin-4-yl)-4-fluorophenyl]thiazol-2-ylmethanol] gave a Ki [1, 4] of under 10000 nM, an IC50 [2, 5] of 500 to 5000 nM and an IC50 ([3]; enzymatic, 5 μM ATP) of 3 to 7 nM.

In the case of `Cc1cc(F)c(-c2ncnc3cc(N4CCOCC4)ccc23)cc1C(O)c1nccs1` (stereo not drawn) [Example 209, [4-Fluoro-2-methyl-5-(7-morpholin-4-yl-quinazolin-4-yl)-phenyl]thiazol-2-ylmethanol], the Ki [1, 4] is reported as over 25000 nM, the IC50 [2, 5] is reported as 10000 to 30000 nM and the IC50 ([3]; enzymatic, 5 μM ATP) is reported as over 30 nM.

`Cc1cc(F)c(-c2ncnc3cc(N4CCOCC4)ccc23)cc1C(O)c1nccs1` (stereo not drawn) [Example 210, [4-Fluoro-2-methyl-5-(7-morpholin-4-yl-quinazolin-4-yl)-phenyl]thiazol-2-ylmethanol] showed a Ki [1, 4] of over 25000 nM, an IC50 [2, 5] of 500 to 5000 nM and an IC50 ([3]; enzymatic, 5 μM ATP) of 3 to 7 nM.

`OC(c1ccc(F)c(-c2ncnc3cc(N4CCOCC4)ccc23)c1)c1nccs1` (stereo not drawn) [Example 211, [4-Fluoro-3-(7-morpholin-4-yl-quinazolin-4-yl)-phenyl]thiazol-2-ylmethanol] showed a Ki [1, 4] of over 25000 nM, an IC50 [2, 5] of 500 to 5000 nM and an IC50 ([3]; enzymatic, 5 μM ATP) of 3 to 7 nM.

Compound `C#Cc1nc(-c2cc(C(O)c3nccs3)ccc2F)c2ccc(N3CCOCC3)cc2n1` (stereo not drawn) [Example 215, [3-(2-Ethynyl-7-morpholin-4-yl-quinazolin-4-yl)-4-fluorophenyl]-thiazol-2-yl-methanol] has a Ki [1, 4] of under 10000 nM, an IC50 [2, 5] of 5000 to 10000 nM and an IC50 ([3]; enzymatic, 5 μM ATP) of under 3 nM.

`C#Cc1nc(-c2cc(C(O)c3nccs3)ccc2F)c2ccc(N3CCOCC3)cc2n1` (stereo not drawn) [Example 216, [3-(2-Ethynyl-7-morpholin-4-yl-quinazolin-4-yl)-4-fluorophenyl]-thiazol-2-yl-methanol] showed a Ki ([1]; Ki [Kv1.11 hERG], patch clamp, HEK293 transfected with hERG gene) of 10000 to 15000 nM, an IC50 [2, 5] of 10000 to 30000 nM and an IC50 ([3]; enzymatic, 5 μM ATP) of under 3 nM.

For `OC(c1cccnc1)c1cc(-c2ncnc3cc(N4CCOCC4)ccc23)c(F)cc1F` (stereo not drawn) [Example 217, [2,4-Difluoro-5-(7-morpholin-4-ylquinazolin-4-yl)phenyl]pyridin-3-ylmethanol], the Ki [1, 6] was over 25000 nM, the IC50 ([2]; Table 7, HCT116 cells) was under 500 nM and the IC50 ([3]; Table 7) was 3 to 7 nM.

Work on `OC(c1ccccn1)c1cc(-c2ncnc3cc(N4CCOCC4)ccc23)c(F)cc1F` (stereo not drawn) [Example 218, [2,4-Difluoro-5-(7-morpholin-4-yl-quinazolin-4-yl)-phenyl]pyridin-2-yl-methanol] yielded a Ki ([1]; Ki [Kv1.11 hERG], Table 7) of 15000 to 25000 nM, an IC50 ([2]; Table 7, HCT116 cells) of under 500 nM and an IC50 ([3]; Table 7) of 3 to 7 nM.

`Cn1nc(C(O)c2cc(-c3ncnc4cc(N5CCOCC5)ccc34)c(F)cc2F)ccc1=O` (stereo not drawn) [Example 219, 6-{[2,4-Difluoro-5-(7-morpholin-4-yl-quinazolin-4-yl)-phenyl]hydroxy-methyl}-2-methyl-2H-pyridazin-3-one] gave a Ki ([1]; Ki [Kv1.11 hERG], Table 7) of 15000 to 25000 nM, an IC50 ([2]; Table 7, HCT116 cells) of 500 to 5000 nM and an IC50 ([3]; Table 7) of 3 to 7 nM.

In the case of `Cn1nc(C(O)c2ccc(F)c(-c3ncnc4cc(N5CCOCC5)ccc34)c2F)ccc1=O` (stereo not drawn) [Example 220, 6-{[2,4-Difluoro-3-(7-morpholin-4-yl-quinazolin-4-yl)-phenyl]hydroxy-methyl}-2-methyl-2H-pyridazin-3-one], the Ki [1, 6] is reported as over 25000 nM, the IC50 ([2]; Table 7, HCT116 cells) is reported as 5000 to 10000 nM and the IC50 ([3]; Table 7) is reported as over 30 nM.

Work on `COc1ccc(C(O)c2cc(-c3ncnc4cc(N5CCOCC5)ccc34)c(F)cc2F)cn1` (stereo not drawn) [Example 221, [2,4-Difluoro-5-(7-morpholin-4-yl-quinazolin-4-yl)-phenyl]-(6-methoxy-pyridin-3-yl)methanol] yielded a Ki ([1]; Ki [Kv1.11 hERG], Table 7) of 15000 to 25000 nM, an IC50 ([2]; Table 7, HCT116 cells) of 500 to 5000 nM and an IC50 ([3]; Table 7) of 3 to 7 nM.

`OC(c1ccc2ncnn2c1)c1cc(-c2ncnc3cc(N4CCOCC4)ccc23)c(F)cc1F` (stereo not drawn) [Example 222, [2,4-Difluro-5-(7-morpholin-4-yl-quinazolin-4-yl)-phenyl]-[l,2,4]-triazolo[1,5-a]pyridin-6-ylmethanol] showed a Ki [1, 6] of over 25000 nM, an IC50 ([2]; Table 7, HCT116 cells) of 500 to 5000 nM and an IC50 ([3]; Table 7) of 3 to 7 nM.

For `OC(c1cn2ccnc2cn1)c1cc(-c2ncnc3cc(N4CCOCC4)ccc23)c(F)cc1F` (stereo not drawn) [Example 223, [2,4-Difluoro-5-(7-morpholin-4-yl-quinazolin-4-yl)-phenyl]imidazo-[1,2-a]pyrazin-6-yl-methanol], the Ki [1, 6] was over 25000 nM, the IC50 ([2]; Table 7, HCT116 cells) was 500 to 5000 nM and the IC50 ([3]; Table 7) was 7 to 30 nM.

In the case of `COc1ccc(C(O)c2cc(-c3ncnc4cc(N5CCOCC5)ccc34)c(F)cc2F)nc1` (stereo not drawn) [Example 224, [2,4-Difluoro-5-(7-morpholin-4-yl-quinazolin-4-yl)-phenyl]-(5-methoxy-pyridin-2-yl)methanol], the Ki ([1]; Ki [Kv1.11 hERG], Table 7) is reported as 15000 to 25000 nM, the IC50 ([2]; Table 7, HCT116 cells) is reported as 500 to 5000 nM and the IC50 ([3]; Table 7) is reported as 3 to 7 nM.

Compound `[2H]c1c(N2CCOCC2)cc2ncnc(-c3cc(C(O)c4nccnc4C)ccc3F)c2c1[2H]` (stereo not drawn) [Example 226, [3-(5,6-Dideuterio-7-morpholino-quinazolin-4-yl)-4-fluorophenyl]-(3-melhylpyrazin-2-yl)-methanol] has a Ki [1, 7] of over 25000 nM, an IC50 [2, 8] of under 500 nM and an IC50 ([3]; biochemical DNA-PK assay) of 3 to 7 nM.

`COc1ccc(C(O)c2cc(-c3ncnc4cc(N5CCOCC5)cnc34)c(F)cc2Cl)nn1` (stereo not drawn) [Example 227, [2-Chloro-4-fluoro-5-(7-morpholin-4-yl-pyrido[3,2-d}-pyrimidin-4-yl)-phenyl]-(6-methoxy-pyridazin-3-yl)-methanol] gave a Ki [1, 9] of over 25000 nM, an IC50 [2, 8] of 500 to 5000 nM and an IC50 ([3]; biochemical DNA-PK assay) of 3 to 7 nM.

`COc1ccc(C(O)c2cc(-c3ncnc4cc(N5CCOCC5)cnc34)c(F)cc2Cl)nn1` (stereo not drawn) [Example 228, [2-Chloro-4-fluoro-5-(7-morpholin-4-yl-pyrido[3,2-d}-pyrimidin-4-yl)-phenyl]-(6-methoxy-pyridazin-3-yl)-methanol] was tested, and the Ki [1, 9] was over 25000 nM, the IC50 [2, 8] was 10000 to 30000 nM and the IC50 ([3]; biochemical DNA-PK assay) was over 30 nM.

Compound `CNC(=O)C(c1cc(-c2ncnc3cc(N4CCOCC4)ccc23)c(F)cc1Cl)c1nccnc1OC` (stereo not drawn) [Example 229, 2-[2-Chloro-4-fluoro-5-(7-morpholin-4-yl-quinazolin-4-yl)-phenyl]-2-(3-methoxypyrazin-2-yl)-N-methyl-acetamide] has a Ki [1, 9] of over 25000 nM, an IC50 [2, 8] of 500 to 5000 nM and an IC50 ([3]; biochemical DNA-PK assay) of 7 to 30 nM.

With `COc1nccnc1C(O)c1cc(-c2ncnc3cc(N4CCOCC4)cnc23)c(F)cc1Cl` (stereo not drawn) [Example 231, [2-Chloro-4-fluoro-5-(7-morpholin-4-yl-pyrido[3,2-d}-pyrimidin-4-yl)-phenyl]-(3-methoxy-pyrazin-2-yl)-methanol] the Ki [1, 9] was over 25000 nM, the IC50 [2, 8] was 500 to 5000 nM and the IC50 ([3]; biochemical DNA-PK assay) was 7 to 30 nM.

`COc1nccnc1C(O)c1cc(-c2ncnc3cc(N4CCOCC4)cnc23)c(F)cc1Cl` (stereo not drawn) [Example 232, [2-Chloro-4-fluoro-5-(7-morpholin-4-yl-pyrido[3,2-d}-pyrimidin-4-yl)-phenyl]-(3-methoxy-pyrazin-2-yl)-methanol] showed a Ki [1, 9] of over 25000 nM, an IC50 [2, 8] of 10000 to 30000 nM and an IC50 ([3]; biochemical DNA-PK assay) of 7 to 30 nM.

In the case of `Cc1nccnc1[C@@H](O)c1ccc(F)c(-c2ncnc3cc(N4CCOCC4)cnc23)c1` [Example 233, (S)-[4-Fluoro-3-(7-morpholin-4-yl-pyrido[3,2-d}-pyrimidin-4-yl)-phenyl]-(3-methyl-pyrazin-2-yl)-methanol], the Ki [1, 9] is reported as over 25000 nM, the IC50 [2, 8] is reported as 10000 to 30000 nM and the IC50 ([3]; biochemical DNA-PK assay) is reported as 7 to 30 nM.

Compound `Cc1nccnc1[C@H](O)c1ccc(F)c(-c2ncnc3cc(N4CCOCC4)cnc23)c1` [Example 234, (R)-[4-Fluoro-3-(7-morpholin-4-yl-pyrido[3,2-d}-pyrimidin-4-yl)-phenyl]-(3-methyl-pyrazin-2-yl)-methanol] has a Ki [1, 9] of over 25000 nM, an IC50 [2, 8] of under 500 nM and an IC50 ([3]; biochemical DNA-PK assay) of under 3 nM.

`Cc1nccnc1C(O)c1ccc(F)c(-c2ncnc3cc(N4CCOCC4)cnc23)c1` (stereo not drawn) [Example 237, [4-Fluoro-3-(7-morpholin-4-ylpyrido[3,2-d]pyrimidin-4-yl)phenyl]-(3-methylpyrazin-2-yl)methanol] showed a Ki [1, 7] of 10000 to 15000 nM, an IC50 [2, 8] of under 500 nM and an IC50 ([3]; biochemical DNA-PK assay) of under 3 nM.

`[2H]C1([2H])OC([2H])([2H])C([2H])([2H])N(c2ccc3c(-c4cc(C(O)c5nccnc5C)ccc4F)ncnc3c2)C1([2H])[2H]` (stereo not drawn) [Example 238, [4-Fluoro-3-[7-(2,2,3,3,5,5,6,6-octadeuteriomorpholin-4-yl)quinazolin-4-yl]phenyl]-(3-methyl-pyrazin-2-yl)-methanol] gave a Ki [1, 7] of 15000 to 25000 nM, an IC50 [2, 8] of under 500 nM and an IC50 ([3]; biochemical DNA-PK assay) of under 3 nM.

`Cc1nccnc1C(O)c1cc(-c2ncnc3cc(N4CCOCC4)cnc23)c(F)cc1Cl` (stereo not drawn) [Example 240, [2-Chloro-4-fluoro-5-(7-morpholin-4-yl-pyrido[3,2-d}-pyrimidin-4-yl)-phenyl]-(3-methyl-pyrazin-2-yl)-methanol] showed a Ki [1, 9] of over 25000 nM, an IC50 [2, 8] of 500 to 5000 nM and an IC50 ([3]; biochemical DNA-PK assay) of 7 to 30 nM.

`[2H]C1([2H])OC([2H])([2H])C([2H])([2H])N(c2ccc3c(-c4cc(C(O)c5nccnc5OC)c(Cl)cc4F)ncnc3c2)C1([2H])[2H]` (stereo not drawn) [Example 241, [2-Chloro-4-fluoro-5-[7-(2,2,3,3,5,5,6,6-octadeuteriomorpholin-4-yl)quinazolin-4-yl]phenyl]-(3-methoxypyrazin-2-yl)methanol] showed a Ki [1, 7] of 10000 to 15000 nM, an IC50 [2, 8] of under 500 nM and an IC50 ([3]; biochemical DNA-PK assay) of under 3 nM.

With `[2H]C1([2H])OC([2H])([2H])C([2H])([2H])N(c2ccc3c(-c4cc(C(O)c5nccnc5OC)c(Cl)cc4F)ncnc3c2)C1([2H])[2H]` (stereo not drawn) [Example 242, [2-Chloro-4-fluoro-5-[7-(2,2,3,3,5,5,6,6-octadeuteriomorpholin-4-yl)quinazolin-4-yl]phenyl]-(3-methoxypyrazin-2-yl)methanol] the Ki [1, 7] was 15000 to 25000 nM, the IC50 [2, 8] was under 500 nM and the IC50 ([3]; biochemical DNA-PK assay) was under 3 nM.
